Test results as given in patent publication US20250352596A1, “DIETARY SUPPLEMENTS FOR MOOD SUPPORT” (Melaleuca, Inc., priority 2024, published 2025).
Values belong to the compound of their own block, whether it stands above or below them.

Columns and labels:
Assay type in all cases: biochemical
GSK3β = GSK3β (Homo sapiens, UniProt P49841); test: kinase inhibition, IC50 of Blend A, ingredients and control; settings: follow up investigation; for inositol the upper limit of use (1 mM) was used in the calculation
GSK3α = GSK3α (Homo sapiens, UniProt P49840); test: as above; settings: follow up investigation; for inositol the upper limit of use (1 mM) was used in the calculation
GRK2 = biological target: T1, GRK2 (Homo sapiens, UniProt P25098); test: as above
T1 sequence (P25098 1-689): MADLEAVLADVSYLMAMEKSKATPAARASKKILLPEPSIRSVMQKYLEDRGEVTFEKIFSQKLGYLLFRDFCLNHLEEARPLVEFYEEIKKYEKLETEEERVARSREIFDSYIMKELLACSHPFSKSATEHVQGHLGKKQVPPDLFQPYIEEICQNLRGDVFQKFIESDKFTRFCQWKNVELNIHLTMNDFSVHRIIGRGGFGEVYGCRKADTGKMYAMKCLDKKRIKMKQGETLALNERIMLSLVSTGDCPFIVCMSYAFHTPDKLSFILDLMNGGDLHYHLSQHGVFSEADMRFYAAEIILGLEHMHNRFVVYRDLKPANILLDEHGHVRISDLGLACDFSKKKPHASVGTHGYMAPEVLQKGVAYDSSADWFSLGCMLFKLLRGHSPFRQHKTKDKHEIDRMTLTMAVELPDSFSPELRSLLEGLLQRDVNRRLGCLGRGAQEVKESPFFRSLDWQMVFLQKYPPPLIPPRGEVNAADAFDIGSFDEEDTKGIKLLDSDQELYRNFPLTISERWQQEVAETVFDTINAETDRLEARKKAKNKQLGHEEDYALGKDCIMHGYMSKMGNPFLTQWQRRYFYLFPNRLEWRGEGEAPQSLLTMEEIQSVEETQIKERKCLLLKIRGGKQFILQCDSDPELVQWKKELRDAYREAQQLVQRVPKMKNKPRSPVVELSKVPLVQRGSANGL

ERK1 = ERK1 (Homo sapiens, UniProt P27361); test: kinase inhibition screen, IC50 of Blend A vs control compound; settings: initial investigation, Table 17; Blend A head reads IC50* (asterisk unexplained)
Text: The cellular mechanism of action of known pharmaceutical compounds targeting mental health require the inhibition of individual enzymes. For example, one of the most well-known pharmaceuticals utilized in the mental health space, lithium, can trace its efficacy in part to the inhibition of an enzyme called glycogen synthase kinase 3 (GSK3). A technique similar to one used in the pharmaceutical industry was used to determine study a mood support composition. See, e.g., Duong-Ly, K. C. & Peterson, J. R. Curr. Protoc. Pharmacol. Chapter 2, Unit2.9 (2013); Ma, H. et al. Expert Opin. Drug Discov.
Within the body, protein kinases are responsible for carrying out cellular and intracellular actions, such as cell-to-cell signaling, neurotransmitter regulation, and hormone release. Several protein kinases are known to influence mood, and many are targets of therapeutic drugs. As a natural alternative to pharmaceuticals, Blend A was screened for efficacy of inhibiting 18 common, mood-related drug targets, including 17 kinases and 1 enzyme.

Chain of GSK3β (P49841 whole entry, species assumed): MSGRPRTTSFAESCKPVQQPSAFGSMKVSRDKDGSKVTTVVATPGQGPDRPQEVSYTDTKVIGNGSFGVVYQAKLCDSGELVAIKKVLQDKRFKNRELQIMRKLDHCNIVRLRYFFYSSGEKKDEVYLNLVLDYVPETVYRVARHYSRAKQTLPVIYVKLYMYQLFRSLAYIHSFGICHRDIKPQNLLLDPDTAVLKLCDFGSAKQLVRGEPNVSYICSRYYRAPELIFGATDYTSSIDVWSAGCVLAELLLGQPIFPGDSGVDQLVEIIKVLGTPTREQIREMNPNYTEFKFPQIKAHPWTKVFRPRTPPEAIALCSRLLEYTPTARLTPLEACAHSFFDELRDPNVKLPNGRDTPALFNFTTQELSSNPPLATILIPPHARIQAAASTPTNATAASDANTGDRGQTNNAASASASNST
Chain of GSK3α (P49840 whole entry, species assumed): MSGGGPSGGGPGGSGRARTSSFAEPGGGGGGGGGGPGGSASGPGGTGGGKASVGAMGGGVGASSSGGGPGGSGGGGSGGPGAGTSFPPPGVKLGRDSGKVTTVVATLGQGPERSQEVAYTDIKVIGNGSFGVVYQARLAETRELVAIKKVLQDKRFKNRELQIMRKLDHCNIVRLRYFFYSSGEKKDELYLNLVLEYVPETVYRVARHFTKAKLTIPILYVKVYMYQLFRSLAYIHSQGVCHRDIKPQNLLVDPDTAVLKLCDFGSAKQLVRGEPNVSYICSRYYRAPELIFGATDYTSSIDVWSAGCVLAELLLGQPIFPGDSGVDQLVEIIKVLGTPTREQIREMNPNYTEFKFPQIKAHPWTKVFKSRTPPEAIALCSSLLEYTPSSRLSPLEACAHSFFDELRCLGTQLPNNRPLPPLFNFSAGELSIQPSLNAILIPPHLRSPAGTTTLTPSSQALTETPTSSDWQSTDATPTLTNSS
Chain of ERK1 (P27361 whole entry, species assumed): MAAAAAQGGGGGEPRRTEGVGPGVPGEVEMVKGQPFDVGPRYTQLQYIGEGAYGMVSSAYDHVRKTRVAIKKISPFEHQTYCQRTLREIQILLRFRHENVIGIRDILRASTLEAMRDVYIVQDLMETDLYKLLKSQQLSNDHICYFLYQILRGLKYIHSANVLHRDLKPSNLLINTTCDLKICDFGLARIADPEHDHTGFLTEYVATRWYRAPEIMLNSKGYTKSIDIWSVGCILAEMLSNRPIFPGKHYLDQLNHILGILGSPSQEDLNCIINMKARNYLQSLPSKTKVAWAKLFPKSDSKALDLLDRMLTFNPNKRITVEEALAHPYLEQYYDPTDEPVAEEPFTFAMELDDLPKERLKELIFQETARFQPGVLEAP

efficacy for inhibiting the target, in words (GSK3β): did not demonstrate efficacy
efficacy for inhibiting the target, in words (GSK3α): did not demonstrate efficacy
efficacy for inhibiting the target, in words (GRK2; follow up investigation, for inositol the upper limit of use (1 mM) was used in the calculation): did not demonstrate efficacy
Structure (SMILES): O[C@H]1[C@H](O)[C@@H](O)[C@H](O)[C@@H](O)[C@H]1O [Inositol, inositol]

IC50 (ERK1): 5.57 nM
Structure (SMILES): O=C(Nc1ccc2[nH]nc(-c3ccncc3)c2c1)[C@@H]1CCN(CC(=O)N2CCN(c3ccc(-c4ncccn4)cc3)CC2)C1 [SCH772984]

Structure (SMILES): CN[C@@H]1C[C@H]2O[C@@](C)([C@@H]1OC)n1c3ccccc3c3c4c(c5c6ccccc6n2c5c31)C(=O)NC4 [STAUROSPORINE, staurosporine, reference compound]
Reciprocal Sum (GRK2; Table 19, sum of the two analyses, each 50% weight): 1.60E+06
